Measurements taken from patent EP0067897A1, “A pharmaceutical composition for use in raised intracranial pressure” (Tanabe Seiyaku Co., Ltd., priority 1981, dated 1982).

Assays:
Male SD-strain rats = test: Effect on intracranial pressure (cerebrospinal fluid pressure in the cisterna magna) in urethane-anesthetized rats after oral administration; format: in vivo; conditions: 8 mg/kg orally
Protocol: Male SD-strain rats weighing […] (each group consisiting of 5 rats) were fasted for about 20 hours, and anesthetized with urethane. 1-(4-acetamido-2-methoxyphenoxy)-3-[4-(3-fluorophenyl)piperazino]-2-propanol (free base) was administered orally to the rats at a dose of 8 mg/kg. Intracranial pressure (i.e., cerebrospinal fluid pressure in the cisterna magna) was continuously monitored via a cannula inserted in the cisterna magna. The cannula was connected to a transducer, and recordings were made on graph paper. The effect of said test compound on the intracranial pressure was estimated in terms of the increase or decrease in intracranial pressure, which was calculated in accordance with the following formula: [formula]

[1] = Acute toxicity after oral administration; conditions: mouse, in vivo; oral administration to male mice, estimated a week after administration
From the text: Unlike those of the hypertonic solutions of glycerol or mannitol, the therapeutic effect of the propanol derivative (I) of the present invention is not ascribable to the cerebral dehydrating effect. The propanol derivative (I) may be used for the treatment or prophylaxis of increased intracranial pressure during and after brain surgical operation. Moreover, the propanol derivative (I) may be used for improving impaired consciousness, nervous disturbance and subjective symptoms (e.g., headache, nausea, vomiting) which are attributed to the cerebral diseases such as those mentioned hereinbefore. Further, whereas it is known that cerebral edema induces an increase in intracranial pressure and increased intracranial pressure serves to cause a build-up of edema which in turn impairs cerebral circulation, the propanol derivative (I) can interrupt such vicious cycle of cerebral diseases because of its potent intracranial pressure-lowering effect and ameliorate the cerebral circulatory impairment. The toxicity of the propanol derivative (I) of the invention is low.

SMILES: COc1cc(NC(C)=O)ccc1OCC(O)CN1CCN(c2cccc(F)c2)CC1 (stereo not shown) [1-(4-acetamido-2-methoxyphenoxy)-3-[4-(3-fluorophenyl)piperazino]-2-propanol]
- Changes in intracranial pressure (%) (Male SD-strain rats; 20 minutes after administration, pre-dose pressure = 100 (70 ± 3.1 mm H2O), 5 rats): 85.4%
- Changes in intracranial pressure (%) (Male SD-strain rats; 60 minutes after administration, pre-dose pressure = 100): 83.5%
- Changes in intracranial pressure (%) (Male SD-strain rats; 120 minutes after administration, pre-dose pressure = 100): 77.7%
- Changes in intracranial pressure (%) (Male SD-strain rats; 180 minutes after administration, pre-dose pressure = 100): 76.5%
- Changes in intracranial pressure (%) (Male SD-strain rats; 240 minutes after administration, pre-dose pressure = 100): 75.6%
- Changes in intracranial pressure (%) (Male SD-strain rats; 300 minutes after administration, pre-dose pressure = 100): 77.9%
- LD50 at 168 h [1]: ~1500 mg/kg
